Laboratory results published in patent publication US12421254B2, “KRAS modulators and uses thereof” (Quanta Therapeutics, Inc., priority 2023, dated 2025).
pIC50: −log10 of the molar value. Like-named read-outs stand apart in the source and are kept apart here.

Columns and labels:
[1] = biological target: GST-tagged KRAS-G12D (2-169) (Homo sapiens, UniProt P01116, G12D); assay: Nucleotide exchange assay (NEA), SOS-mediated, HTRF, KRAS G12D; assay type: biochemical; details: IC50 extracted at 30 min, 20 nM SOScat; for pIC50: Table 4, read-out: NEA G12D IC50
Sequence of GST-tagged KRAS-G12D (2-169) (P01116 2-169 isoform P01116-2 G12D): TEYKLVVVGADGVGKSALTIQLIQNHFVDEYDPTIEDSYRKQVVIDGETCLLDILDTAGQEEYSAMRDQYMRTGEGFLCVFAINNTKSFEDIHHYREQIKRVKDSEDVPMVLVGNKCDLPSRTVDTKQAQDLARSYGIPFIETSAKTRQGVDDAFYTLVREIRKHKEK
Outline: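 SOS1cat-driven loading of fluorescent GTP-DY-647P1 (150 nM) onto GST-KRAS-G12D (2-169, 0.25 nM) read by time-resolved FRET; SOScat 20 nM, compound preincubated with KRAS 1 h at RT. Signal blanked to no-SOS reactions, normalized to DMSO; IC50 fitted from the 30-min read.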

[2] = biological target: GST-tagged KRAS-G12V (2-169) (Homo sapiens, UniProt P01116, G12V); assay: Nucleotide exchange assay (NEA), SOS-mediated, HTRF, KRAS G12V; assay type: biochemical; details: Table 4; IC50 extracted at 90 min; 80 nM SOS
Sequence of GST-tagged KRAS-G12V (2-169) (P01116 2-169 isoform P01116-2 G12V): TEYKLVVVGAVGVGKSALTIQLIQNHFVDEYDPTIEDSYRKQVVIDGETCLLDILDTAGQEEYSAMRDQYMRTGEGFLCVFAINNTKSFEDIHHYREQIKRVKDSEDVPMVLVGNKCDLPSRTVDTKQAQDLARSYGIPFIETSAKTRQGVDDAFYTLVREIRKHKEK
Outline: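 Exchange onto fluorescent GTP-DY-647P1 (150 nM final) catalysed by 80 nM SOS1cat was followed by Tb-anti-GST HTRF at RT for up to 90 min, after 1 h compound pre-incubation with 0.25 nM GST-tagged KRAS-G12V (2-169), pH 7.3. DMSO = 0%, no-SOS blank = 100%; 4-parameter IC50 taken at 90 min.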

SMILES	pIC50 [1]	pIC50 [2]	IC50 ([1]; Table 2, read-out: NEA-G12D (uM) IC50) [µM]
CC(c1nccnc1N)N(C)c1nc(OC[C@@]23CCCN2C[C@H](F)C3)nc(N2CC3(CCc4sc(N)c(C#N)c43)C2)n1 (single isomer, unassigned) [Compound 116B, 2-amino-1′-[4-[[(1*)-1-(3-aminopyrazin-2-yl)ethyl]-methyl-amino]-6-[[(2R,8S)-2-fluoro-1,2,3,5,6,7-hexahydropyrrolizin-8-yl]methoxy]-1,3,5-triazin-2-yl]spiro[5,6-dihydrocyclopenta[b]thiophene-4,3′-azetidine]-3-carbonitrile]	6.00 to 7.00	7.00 to 8.00	
CCN(c1nc(OCC2(CO)CCCN2)nc(N2CC3(C2)SCc2sc(N)c(C#N)c23)n1)[C@H](C)c1cccnc1N (stereo partly drawn) [Compound 208, 2-amino-1′-[4-[[(1R)-1-(2-amino-3-pyridyl)ethyl]-ethyl-amino]-6-[[2-(hydroxymethyl)pyrrolidin-2-yl]methoxy]-1,3,5-triazin-2-yl]spiro[6H-thieno[3,4-b]thiophene-4,3′-azetidine]-3-carbonitrile]	> 8.00	> 8.00	
CN(CC1(C#N)CC1)c1nc(OC[C@@]23CCCN2C[C@H](F)C3)nc(N2CCC3(CCc4sc(N)c(C#N)c43)C2)n1 (stereo partly drawn) [Compound 14, 2-amino-1′-[4-[(1-cyanocyclopropyl)methyl-methyl-amino]-6-[[(2R,8S)-2-fluoro-1,2,3,5,6,7-hexahydropyrrolizin-8-yl]methoxy]-1,3,5-triazin-2-yl]spiro[5,6-dihydrocyclopenta[b]thiophene-4,3′-pyrrolidine]-3-carbonitrile]	4.70 to 6.00	4.70 to 6.00	1 to 20
N#Cc1c(N)sc2c1C1(CCC2)CN(c2nc(OCC3(C#N)CC3)nc(OC[C@@]34CCCN3C[C@H](F)C4)n2)C1 [Compound 54, 2-amino-1′-[4-[(1-cyanocyclopropyl)methoxy]-6-[[(2R,8S)-2-fluoro-1,2,3,5,6,7-hexahydropyrrolizin-8-yl]methoxy]-1,3,5-triazin-2-yl]spiro[6,7-dihydro-5H-benzothiophene-4,3′-azetidine]-3-carbonitrile]	6.00 to 7.00	7.00 to 8.00	
N#Cc1c(N)sc2c1C1(CC2)CN(c2nc(OCC3(O)CC3)nc(OC[C@@]34CCCN3C[C@H](F)C4)n2)C1 [Compound 76, 2-amino-1′-[4-[[(2R,8S)-2-fluoro-1,2,3,5,6,7-hexahydropyrrolizin-8-yl]methoxy]-6-[(1-hydroxycyclopropyl)methoxy]-1,3,5-triazin-2-yl]spiro[5,6-dihydrocyclopenta[b]thiophene-4,3′-azetidine]-3-carbonitrile]	4.70 to 6.00	6.00 to 7.00	
N#Cc1c(N)sc2c1C1(CN(c3nc(OC[C@@]45CCCN4C[C@H](F)C5)nc(N4[C@@H]5CC[C@H]4C[C@H](O)C5)n3)C1)SC2 [Compound 275, 2-amino-1′-[4-[[(2R,8S)-2-fluoro-1,2,3,5,6,7-hexahydropyrrolizin-8-yl]methoxy]-6-[(1S,5R)-3-hydroxy-8-azabicyclo[3.2.1]octan-8-yl]-1,3,5-triazin-2-yl]spiro[6H-thieno[3,4-b]thiophene-4,3′-azetidine]-3-carbonitrile]	6.00 to 7.00	6.00 to 7.00	
N#CCC12CC1CN(c1nc(OC[C@@]34CCCN3C[C@H](F)C4)nc(N3CC4(CCc5sc(N)c(C#N)c54)C3)n1)C2 (stereo partly drawn) [Compound 42, 2-amino-1′-[4-[1-(cyanomethyl)-3-azabicyclo[3.1.0]hexan-3-yl]-6-[[(2R,8S)-2-fluoro-1,2,3,5,6,7-hexahydropyrrolizin-8-yl]methoxy]-1,3,5-triazin-2-yl]spiro[5,6-dihydrocyclopenta[b]thiophene-4,3′-azetidine]-3-carbonitrile]	4.70 to 6.00	6.00 to 7.00	
C[C@H](c1cccnc1N)N(CC(N)=O)c1nc(OC[C@@]23CCCN2C[C@H](F)C3)nc(N2CC3(C2)SCc2sc(N)c(C#N)c23)n1 [Compound 199, 2-[[4-(2-amino-3-cyano-spiro[6H-thieno[3,4-b]thiophene-4,3′-azetidine]-1′-yl)-6-[[(2R,8S)-2-fluoro-1,2,3,5,6,7-hexahydropyrrolizin-8-yl]methoxy]-1,3,5-triazin-2-yl]-[(1R)-1-(2-amino-3-pyridyl)ethyl]amino]acetamide]	> 8.00	> 8.00	
N#Cc1c(N)sc2c1C1(CC2)CN(c2nc(OC[C@@]34CCCN3C[C@H](F)C4)nc(N(CCO)Cc3c[nH]nc3Cl)n2)C1 [Compound 151, 2-amino-1′-[4-[(3-chloro-1H-pyrazol-4-yl)methyl-(2-hydroxyethyl)amino]-6-[[(2R,8S)-2-fluoro-1,2,3,5,6,7-hexahydropyrrolizin-8-yl]methoxy]-1,3,5-triazin-2-yl]spiro[5,6-dihydrocyclopenta[b]thiophene-4,3′-azetidine]-3-carbonitrile]	4.70 to 6.00	6.00 to 7.00	
C[C@]1(O)C[C@H](O)CN(c2nc(OC[C@@]34CCCN3C[C@H](F)C4)nc(N3CC4(CCc5sc(N)c(C#N)c54)C3)n2)C1 [Compound 75, 2-amino-1′-[4-[(3S,5S)-3,5-dihydroxy-3-methyl-1-piperidyl]-6-[[(2R,8S)-2-fluoro-1,2,3,5,6,7-hexahydropyrrolizin-8-yl]methoxy]-1,3,5-triazin-2-yl]spiro[5,6-dihydrocyclopenta[b]thiophene-4,3′-azetidine]-3-carbonitrile]	4.70 to 6.00	6.00 to 7.00	
CCN(c1nc(OC[C@@]23CCCN2C[C@H](F)C3)nc(N2CC3(C2)c2c(sc(N)c2C#N)CN3CC(F)F)n1)[C@H](C)c1cccnc1N [Compound 227, 2-amino-1′-[4-[[(1R)-1-(2-amino-3-pyridyl)ethyl]-ethyl-amino]-6-[[(2R,8S)-2-fluoro-1,2,3,5,6,7-hexahydropyrrolizin-8-yl]methoxy]-1,3,5-triazin-2-yl]-5-(2,2-difluoroethyl)spiro[6H-thieno[2,3-c]pyrrole-4,3′-azetidine]-3-carbonitrile]	6.00 to 7.00	7.00 to 8.00	
N#Cc1c(N)sc2c1C1(CC2)CN(c2nc(OC[C@@]34CCCN3C[C@H](F)C4)nc(OC3CCOC3)n2)C1 (stereo partly drawn) [Compound 78, 2-amino-1′-[4-[[(2R,8S)-2-fluoro-1,2,3,5,6,7-hexahydropyrrolizin-8-yl]methoxy]-6-tetrahydrofuran-3-yloxy-1,3,5-triazin-2-yl]spiro[5,6-dihydrocyclopenta[b]thiophene-4,3′-azetidine]-3-carbonitrile; formic acid]	4.70 to 6.00	6.00 to 7.00	
N#Cc1c(N)sc2c1C1(CN(c3nc(OC[C@@]45CCCN4C[C@H](F)C5)nc(N4C5CNC(=O)C4C5)n3)C1)SC2 (stereo partly drawn) [Compound 267, 2-amino-1′-[4-[[(2R,8S)-2-fluoro-1,2,3,5,6,7-hexahydropyrrolizin-8-yl]methoxy]-6-(2-oxo-3,6-diazabicyclo[3.1.1]heptan-6-yl)-1,3,5-triazin-2-yl]spiro[6H-thieno[3,4-b]thiophene-4,3′-azetidine]-3-carbonitrile]	7.00 to 8.00	> 8.00	
N#Cc1c(N)sc2c1C1(CN(c3nc(OC[C@@]45CCCN4C[C@H](F)C5)nc(N4C5COCC4C5)n3)C1)SC2 [Compound 265, 2-amino-1′-[4-[[(2R,8S)-2-fluoro-1,2,3,5,6,7-hexahydropyrrolizin-8-yl]methoxy]-6-(3-oxa-6-azabicyclo[3.1.1]heptan-6-yl)-1,3,5-triazin-2-yl]spiro[6H-thieno[3,4-b]thiophene-4,3′-azetidine]-3-carbonitrile]	6.00 to 7.00	7.00 to 8.00	
CCN(c1nc(OC[C@@]23CCCN2C[C@H](F)C3)nc(N2CC3(C2)c2c(sc(N)c2C#N)C2CC23)n1)[C@H](C)c1cccnc1N (stereo partly drawn) [Compound 212, 8-amino-1′-[4-[[(1R)-1-(2-amino-3-pyridyl)ethyl]-ethyl-amino]-6-[[(2R,8S)-2-fluoro-1,2,3,5,6,7-hexahydropyrrolizin-8-yl]methoxy]-1,3,5-triazin-2-yl]spiro[9-thiatricyclo[4.3.0.02,4]nona-1(6),7-diene-5,3′-azetidine]-7-carbonitrile]	> 8.00	> 8.00	
C[C@H](c1cccnc1N)N(C)c1nc(OC[C@@]23CCCN2C[C@H](F)C3)nc(N2CCC3(CCc4sc(N)c(C#N)c43)C2)n1 (stereo partly drawn) [Compound 195, 2-amino-1′-[4-[methyl-[(1R)-1-(2-amino-3-pyridyl)ethyl]amino]-6-[[(2R,8S)-2-fluoro-1,2,3,5,6,7-hexahydropyrrolizin-8-yl]methoxy]-1,3,5-triazin-2-yl]spiro[5,6-dihydrocyclopenta[b]thiophene-4,3′-pyrrolidine]-3-carbonitrile]	7.00 to 8.00	> 8.00	
C[C@H](c1ccc(P(C)(C)=O)nc1N)N(C)c1nc(OC[C@@]23CCCN2C[C@H](F)C3)nc(N2CC3(C2)SCc2sc(N)c(C#N)c23)n1 [Compound 232, 2-amino-1′-[4-[1-(2-amino-6-dimethylphosphoryl-3-pyridyl)ethyl-methyl-amino]-6-[[(2R,8S)-2-fluoro-1,2,3,5,6,7-hexahydropyrrolizin-8-yl]methoxy]-1,3,5-triazin-2-yl]spiro[6H-thieno[3,4-b]thiophene-4,3′-azetidine]-3-carbonitrile]	4.70 to 6.00	6.00 to 7.00	
CC1(O)COCCN(c2nc(OC[C@@]34CCCN3C[C@H](F)C4)nc(N3CC4(C3)SCc3sc(N)c(C#N)c34)n2)C1 (stereo partly drawn) [Compound 268, 2-amino-1′-[4-[[(2R,8S)-2-fluoro-1,2,3,5,6,7-hexahydropyrrolizin-8-yl]methoxy]-6-(6-hydroxy-6-methyl-1,4-oxazepan-4-yl)-1,3,5-triazin-2-yl]spiro[6H-thieno[3,4-b]thiophene-4,3′-azetidine]-3-carbonitrile]	> 8.00	> 8.00	
